Laboratory results reported in article PMC11170711, “Pharmacophore Virtual Screening Identifies Riboflavin as an Inhibitor of the Schistosome Cathepsin B1 Protease with Antiparasitic Activity” (ACS Omega, 2024).

Target: T1, human cathepsin B (Homo sapiens, UniProt P07858)
T1 construct: gene CTSB
Assay: fluorogenic Z-RR-AMC hydrolysis assay with recombinant enzyme, without and with […] Triton X-[…] with detergent
Format: biochemical

Cc1cc2nc3c(=O)[nH]c(=O)nc-3n(C[C@H](O)[C@H](O)[C@H](O)CO)c2cc1C [RBF, riboflavin]
IC50: 12.1 ± 1.86 µM
